Values quoted from earlier work in US7683052B2, “Crystalline polymorph of bazedoxifene acetate” (Wyeth, priority 2004, dated 2010).

What was measured:
[1] = system: uterine response; details: preclinical models of uterine stimulation
[2] = system: ovariectomized rat; details: ovariectomized rat model of osteopenia
[3] = system: MCF-7 cell line (human breast cancer cell line); details: MCF-7 human breast cancer cell line

Cc1c(-c2ccc(O)cc2)n(Cc2ccc(OCCN3CCCCCC3)cc2)c2ccc(O)cc12 [bazedoxifene acetate, 1-[4-(2-azepan-1-yl-ethoxy)-benzyl]-2-(4-hydroxy-phenyl)-3-methyl-1H-indol-5-ol acetic acid]
Stimulation of uterine response [1]: little or no stimulation of uterine response
Effect on bone loss and cholesterol [2]: estrogen agonist-like effect in preventing bone loss and reducing cholesterol
Estrogen agonist/antagonist behaviour in MCF-7 cells [3]: behaves as an estrogen antagonist
